The text below walks through data of paper PMC9250534, “Synthesis and direct assay of large macrocycle diversities by combinatorial late-stage modification at picomole scale” (Nature Communications, 2022).

This test deals with MDM2 (Homo sapiens, UniProt Q00987). Kind of test: MDM2 binding screen: displacement of fluorescent p53 peptide probe FP53 (fluorescence polarization). Particulars: for fraction fluorescent probe displaced: 10 µM macrocycle concentration, crude acylated macrocycle (scaffold Mpa-AA1-AA2-AA3 x carboxylic acid), p53-based fluorescent peptide, human MDM2; for fraction fluorescent probe displaced, Screen: initial screen; for fraction fluorescent probe displaced, Screen / fraction fluorescent probe displaced, Replicate: crude macrocycle reactions. The method, boiled down:
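Macrocycle reaction products at a final 10 µM were tested for displacement of a p53-based fluorescent peptide from human MDM2. Fluorescence anisotropy (ex 485/em 535 nm) was read once per macrocycle at 25 °C.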

Numbered stars: 1 amine (or outer) side, 2 acyl side, 3 side chain; on linkers, the order of the positions; unused ones are H or OH. Bridge positions count the residues as written; N and C are the ends. Square brackets hold non-standard residues; d marks the D form. Peptide text beside a SMILES is read from it. * marks the point of attachment. ξ: configuration not given here. ξPro(4ξ-NHCOC6H4-4-Cl) = O=C(NC1CNC(C(=O)O)C1)c1ccc(Cl)cc1; Phenylacetyl(4-Cl) = O=C(Cc1ccc(Cl)cc1)*; 2Thenoyl(5-Cl) = O=C(c1ccc(Cl)s1)*; Benzoyl(3-OH) = O=C(c1cccc(O)c1)*; Cysteamide = C(CS[*:3])N[*:1]; X1 = O=C(/C=C/c1ccccc1)*; Api = NC1(C(=O)O)CCNCC1; Dap = NC[C@H](N)C(=O)O; Mpa = O=C(O)CCS

Chain of MDM2 (Q00987 whole entry, the tested form may be a part): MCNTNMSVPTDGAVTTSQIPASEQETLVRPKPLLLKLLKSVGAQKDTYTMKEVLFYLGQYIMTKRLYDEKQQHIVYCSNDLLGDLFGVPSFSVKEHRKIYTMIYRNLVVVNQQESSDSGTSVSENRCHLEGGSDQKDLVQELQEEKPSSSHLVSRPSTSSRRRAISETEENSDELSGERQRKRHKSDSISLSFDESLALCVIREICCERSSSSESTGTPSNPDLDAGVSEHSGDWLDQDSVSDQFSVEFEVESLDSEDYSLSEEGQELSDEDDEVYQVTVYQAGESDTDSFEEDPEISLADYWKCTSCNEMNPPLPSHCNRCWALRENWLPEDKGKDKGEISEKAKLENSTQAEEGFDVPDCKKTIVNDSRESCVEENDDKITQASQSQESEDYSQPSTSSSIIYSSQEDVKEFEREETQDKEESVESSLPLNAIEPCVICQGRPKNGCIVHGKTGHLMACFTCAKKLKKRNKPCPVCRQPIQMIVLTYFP

As to `O=C(Cc1ccc(Cl)cc1)NC[C@@H]1NC(=O)[C@@H]2CCCN2C(=O)CCSSCCNC(=O)[C@H](Cc2c[nH]c3ccccc23)NC1=O` [X-B1-D3-W + A45] ([Mpa]P[Dap](Phenylacetyl(4-Cl))W-Cysteamide; disulfide 1-C), the “fraction fluorescent probe displaced” value stood at 0.08387.

On to `O=C1CCSSCCNC(=O)[C@@H]2C[C@H](NC(=O)c3ccc(Cl)cc3)CN2C(=O)c2cccc(c2)CNC(=O)[C@H](Cc2ccccc2)N1` [X F B5 D5 Acid 25], for which, where the note is “Acid 25”, the “fraction fluorescent probe displaced, Screen” value is listed as 0.0244 and the “fraction fluorescent probe displaced, Replicate” value is -0.00432. On to `NC[C@@H]1NC(=O)[C@@H]2CCCN2C(=O)CCSSCCNC(=O)[C@H](Cc2c[nH]c3ccccc23)NC1=O` [X-B1-D3-W + No Acid] ([Mpa]P[Dap]W-Cysteamide; disulfide 1-C), for which the “fraction fluorescent probe displaced” value worked out at 0.1075. For the molecule `O=C(/C=C/c1ccccc1)NC[C@@H]1NC(=O)CCSSCCNC(=O)c2cccc(c2)CNC(=O)[C@H](Cc2c[nH]c3ccccc23)NC1=O` [X D3 W B5 Acid 91], under “Acid 91”, the “fraction fluorescent probe displaced, Screen” value stood at 0.24 and the “fraction fluorescent probe displaced, Replicate” value was 0.32.

With `O=C1CCSSCCNC(=O)C2CC(NC(=O)c3ccc(Cl)s3)CN2C(=O)C2CCCN(C2)C(=O)C(Cc2c[nH]c3ccccc23)N1` (centres unmarked) [X W B4 D5 Acid 14], for the setting “Acid 14”, the “fraction fluorescent probe displaced, Screen” value was determined as 0.23 and the “fraction fluorescent probe displaced, Replicate” value was 0.35. On to `O=C(C=Cc1ccccc1)NC1CC2C(=O)NCCSSCCC(=O)NCCC(=O)NC(Cc3ccccc3)C(=O)N2C1` (centres unmarked) [X B2 F D5 Acid 91], for which, under “Acid 91”, the “fraction fluorescent probe displaced, Screen” value is given as 0.00268 and the “fraction fluorescent probe displaced, Replicate” value was -0.08. Consider `O=C(NC[C@@H]1NC(=O)[C@@H]2CCCN2C(=O)CCSSCCNC(=O)[C@H](Cc2c[nH]c3ccccc23)NC1=O)c1cccc(O)c1` [X-B1-D3-W + A27] ([Mpa]P[Dap](Benzoyl(3-OH))W-Cysteamide; disulfide 1-C), for which the “fraction fluorescent probe displaced” value came to 0.1229. Consider `O=C(/C=C/c1ccccc1)NC[C@@H]1NC(=O)[C@@H]2CCCN2C(=O)CCSSCCNC(=O)[C@H](Cc2ccccc2)NC1=O` [X-B1-D3-F + A91] ([Mpa]P[Dap](X1)F-Cysteamide; disulfide 1-C), for which the “fraction fluorescent probe displaced” value is on record as 0.08311. `O=C1CCSSCCNC(=O)C2(CCN(C(=O)c3ccc(Cl)s3)CC2)NC(=O)[C@@H]2CCCN2C(=O)[C@H](Cc2c[nH]c3ccccc23)N1` [X W B1 D6 Acid 14] ([Mpa]WP[Api](2Thenoyl(5-Cl))-Cysteamide; disulfide 1-C): for the setting “Acid 14”, the “fraction fluorescent probe displaced, Screen” value turned out to be 0.08 and the “fraction fluorescent probe displaced, Replicate” value was -0.00432. For the molecule `O=C1CCSSCCNC(=O)C2(CCN(C(=O)C=Cc3ccccc3)CC2)NC(=O)C(Cc2c[nH]c3ccccc23)NC(=O)CCN1` (centres unmarked) [X B2 W D6 Acid 91], where the note is “Acid 91”, the “fraction fluorescent probe displaced, Screen” value is 0.0563 and the “fraction fluorescent probe displaced, Replicate” value was found to be 0.07.

As for `O=C1NC2(CCN(C(=O)c3ccc(Cl)s3)CC2)C(=O)NCCSSCCC(=O)N2CCCC2C(=O)NC1Cc1ccccc1` (centres unmarked) [X B1 F D6 Acid 14] ([Mpa]PF[Api](2Thenoyl(5-Cl))-Cysteamide; disulfide 1-C; configuration not given here), where the note is “Acid 14”, the “fraction fluorescent probe displaced, Screen” value is reported as 0.08 and the “fraction fluorescent probe displaced, Replicate” value worked out at 0.07. For `O=C1CCSSCCNC(=O)C2CC(NC(=O)c3ccc(Cl)cc3)CN2C(=O)C2CCCN2C(=O)C(Cc2c[nH]c3ccccc23)N1` (centres unmarked) [X W B1 D5 Acid 25] ([Mpa]WP[ξPro(4ξ-NHCOC6H4-4-Cl)]-Cysteamide; disulfide 1-C; configuration not given here), where the note is “Acid 25”, the “fraction fluorescent probe displaced, Screen” value stood at 0.15 and the “fraction fluorescent probe displaced, Replicate” value was determined as 0.17. For `O=C1CCSSCCNC(=O)C2CCCN(C2)C(=O)C2(CCN(C(=O)c3ccc(Cl)cc3)CC2)NC(=O)C(Cc2c[nH]c3ccccc23)N1` (centres unmarked) [X W D6 B4 Acid 25] the same measures were 0.28 and 0.20.

On to `O=C(C=Cc1ccccc1)NC1CC2C(=O)NC(Cc3c[nH]c4ccccc34)C(=O)N3CCCC(C3)C(=O)NCCSSCCC(=O)N2C1` (centres unmarked) [X D5 W B4 Acid 91], for which, for the setting “Acid 91”, the “fraction fluorescent probe displaced, Screen” value is recorded as 0.0563 and the “fraction fluorescent probe displaced, Replicate” value is 0.07. In the case of `O=C1CCSSCCNC(=O)C2CN(C(=O)c3ccc(Cl)s3)CCN2C(=O)C(Cc2c[nH]c3ccccc23)NC(=O)CCN1` (mixture of isomers) [X B2 W D7 Acid 14], where the note is “Acid 14”, the “fraction fluorescent probe displaced, Screen” value amounted to 0.23 and the “fraction fluorescent probe displaced, Replicate” value is given as 0.10. `O=C1CCNC(=O)C2CC(NC(=O)c3ccc(Cl)s3)CN2C(=O)CCSSCCNC(=O)C(Cc2ccccc2)N1` (centres unmarked) [X D5 B2 F Acid 14]: for the setting “Acid 14”, the “fraction fluorescent probe displaced, Screen” value is listed as -0.0337 and the “fraction fluorescent probe displaced, Replicate” value was 0.07. In the case of `O=C(C=Cc1ccccc1)NC1CC2C(=O)NCCSSCCC(=O)NCc3cccc(c3)C(=O)NC(Cc3c[nH]c4ccccc34)C(=O)N2C1` (centres unmarked) [X B5 W D5 Acid 91], for the setting “Acid 91”, the “fraction fluorescent probe displaced, Screen” value is 0.00268 and the “fraction fluorescent probe displaced, Replicate” value came out at 0.12. Consider `O=C(NC[C@@H]1NC(=O)[C@H]2CCCN(C2)C(=O)CCSSCCNC(=O)[C@H](Cc2ccccc2)NC1=O)c1ccc(Cl)cc1` [X B4 D3 F Acid 25], for which, where the note is “Acid 25”, the “fraction fluorescent probe displaced, Screen” value is reported as 0.09 and the “fraction fluorescent probe displaced, Replicate” value was 0.12. Take `O=C(/C=C/c1ccccc1)NC[C@@H]1NC(=O)CCSSCCNC(=O)[C@H](Cc2c[nH]c3ccccc23)NC(=O)[C@@H]2CCCN2C1=O` [X D3 B1 W Acid 91] ([Mpa][Dap](X1)PW-Cysteamide; disulfide 1-C): where the note is “Acid 91”, the “fraction fluorescent probe displaced, Screen” value is on record as -0.0241 and the “fraction fluorescent probe displaced, Replicate” value is recorded as 0.04. Take `O=C(NC1CC2C(=O)NC(Cc3c[nH]c4ccccc34)C(=O)N3CCCC3C(=O)NCCSSCCC(=O)N2C1)c1ccc(Cl)cc1` (centres unmarked) [X D5 W B1 Acid 25] ([Mpa][ξPro(4ξ-NHCOC6H4-4-Cl)]WP-Cysteamide; disulfide 1-C; configuration not given here): where the note is “Acid 25”, the “fraction fluorescent probe displaced, Screen” value came to 0.22 and the “fraction fluorescent probe displaced, Replicate” value is on record as 0.10. For the molecule `O=C1CCSSCCNC(=O)c2cccc(c2)CNC(=O)[C@H](Cc2ccccc2)NC(=O)C2(CCN(C(=O)c3ccc(Cl)s3)CC2)N1` [X D6 F B5 Acid 14], under “Acid 14”, the “fraction fluorescent probe displaced, Screen” value is listed as -0.0337 and the “fraction fluorescent probe displaced, Replicate” value was 0.12. Turning to `O=C(C=Cc1ccccc1)NC1CC2C(=O)NC(Cc3c[nH]c4ccccc34)C(=O)NCCSSCCC(=O)NCc3cccc(c3)C(=O)N2C1` (centres unmarked) [X B5 D5 W Acid 91], under “Acid 91”, the “fraction fluorescent probe displaced, Screen” value is -0.13 and the “fraction fluorescent probe displaced, Replicate” value turned out to be 0.0168.

Regarding `O=C1CCSSCCNC(=O)C(CNC(=O)c2ccc(Cl)s2)NC(=O)c2cccc(c2)CNC(=O)C(Cc2ccccc2)N1` (centres unmarked) [X F B5 D3 Acid 14], under “Acid 14”, the “fraction fluorescent probe displaced, Screen” value is recorded as 0.08 and the “fraction fluorescent probe displaced, Replicate” value was -0.00432. With `O=C(/C=C/c1ccccc1)NC[C@@H]1NC(=O)CCNC(=O)CCSSCCNC(=O)[C@H](Cc2c[nH]c3ccccc23)NC1=O` [X B2 D3 W Acid 91], under “Acid 91”, the “fraction fluorescent probe displaced, Screen” value amounted to 0.27 and the “fraction fluorescent probe displaced, Replicate” value came to 0.14.
